From the supplement of paper PMC10307832

Legend:
Test in all cases: relative viability (nuclei count vs DMSO), 5 days (fraction); higher = more cells survive
Vandetanib + OSI-027 = compound: COc1cc2/c(=N/c3ccc(Br)cc3F)nc[nH]c2cc1OCC1CCN(C)CC1 [Vandetanib] + COc1cccc2cc(-c3nc([C@H]4CC[C@H](C(=O)O)CC4)n4ncnc(N)c34)[nH]c12 [OSI-027] (partner 0.5 µM)
Summary of the method: (§1)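 Relative viability was taken as the ratio of nuclei in treated wells to nuclei in vehicle wells. Lung cancer cell lines in 1536-well plates received compounds by pin tool one day after seeding, either one drug alone or a fixed anchor-drug dose plus five library-drug doses (not always all listed) in √10 steps. Nuclei were counted on 4× images after 5 days of treatment, and values are medians of duplicate plates.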

[1] = compound: C1=CC=C2C(=C1)N=C(S2)C(C#N)C3=NC(=NC=C3)NCCC4=CN=CC=C4 + Cc1nc(NC(=O)N2CCC[C@H]2C(N)=O)sc1-c1ccnc(C(C)(C)C(F)(F)F)c1 [Alpelisib] (partner 2 µM)
Summary of the method: as §1

CUDC-101 + Tozasertib = compound: C#Cc1cccc(Nc2ncnc3cc(OC)c(OCCCCCCC(=O)NO)cc23)c1 [CUDC-101] + Cc1cc(Nc2cc(N3CCN(C)CC3)nc(Sc3ccc(NC(=O)C4CC4)cc3)n2)n[nH]1 [Tozasertib] (partner 0.1 µM)
Summary of the method: as §1

NVP-TAE684 + Tozasertib = compound: COc1cc(N2CCC(N3CCN(C)CC3)CC2)ccc1Nc1ncc(Cl)c(Nc2ccccc2S(=O)(=O)C(C)C)n1 [NVP-TAE684] + Cc1cc(Nc2cc(N3CCN(C)CC3)nc(Sc3ccc(NC(=O)C4CC4)cc3)n2)n[nH]1 [Tozasertib] (partner 0.1 µM)
Summary of the method: as §1

For SK-LU-1, the relative viability (Vandetanib + OSI-027; first compound 0.02 µM) was 0.332, the relative viability (Vandetanib + OSI-027; first compound 0.06325 µM) was 0.199 and the relative viability (Vandetanib + OSI-027; first compound 0.2 µM) was 0.37. The relative viability (Vandetanib + OSI-027; first compound 0.6325 µM) was 0.348, the relative viability (Vandetanib + OSI-027; first compound 2 µM) was 0.301 and the relative viability ([1]; first compound 0.01581 µM) was 0.962. The relative viability ([1]; first compound 0.05 µM) was 0.824, the relative viability ([1]; first compound 0.1581 µM) was 1.27 and the relative viability ([1]; first compound 0.5 µM) was 0.858. The relative viability (CUDC-101 + Tozasertib; first compound 0.01 µM) was 0.336, the relative viability (CUDC-101 + Tozasertib; first compound 0.03162 µM) was 0.322 and the relative viability (CUDC-101 + Tozasertib; first compound 0.1 µM) was 0.367. The relative viability (CUDC-101 + Tozasertib; first compound 0.3162 µM) was 0.309, the relative viability (CUDC-101 + Tozasertib; first compound 1 µM) was 0.269 and the relative viability (NVP-TAE684 + Tozasertib; first compound 0.2 µM) was 0.333. The relative viability (NVP-TAE684 + Tozasertib; first compound 0.6325 µM) was 0.305 and the relative viability (NVP-TAE684 + Tozasertib; first compound 2 µM) was 0.216.

Work on SK-MES-1 yielded a relative viability (Vandetanib + OSI-027; first compound 0.02 µM) of 0.678, a relative viability (Vandetanib + OSI-027; first compound 0.06325 µM) of 0.559 and a relative viability (Vandetanib + OSI-027; first compound 0.2 µM) of 0.691. It also gave a relative viability (Vandetanib + OSI-027; first compound 0.6325 µM) of 0.618, a relative viability (Vandetanib + OSI-027; first compound 2 µM) of 0.448 and a relative viability ([1]; first compound 0.005 µM) of 1.17. The relative viability ([1]; first compound 0.01581 µM) was 0.979, the relative viability ([1]; first compound 0.05 µM) was 1.12 and the relative viability ([1]; first compound 0.1581 µM) was 1.14. For the same cell line, the relative viability ([1]; first compound 0.5 µM) was 0.859, the relative viability (CUDC-101 + Tozasertib; first compound 0.01 µM) was 0.976 and the relative viability (CUDC-101 + Tozasertib; first compound 0.03162 µM) was 0.945. The relative viability (CUDC-101 + Tozasertib; first compound 0.1 µM) was 0.942, the relative viability (CUDC-101 + Tozasertib; first compound 0.3162 µM) was 0.809 and the relative viability (CUDC-101 + Tozasertib; first compound 1 µM) was 0.502. It also gave a relative viability (NVP-TAE684 + Tozasertib; first compound 0.2 µM) of 0.958, a relative viability (NVP-TAE684 + Tozasertib; first compound 0.6325 µM) of 0.892 and a relative viability (NVP-TAE684 + Tozasertib; first compound 2 µM) of 0.48.

SW 1573 was tested, and the relative viability (Vandetanib + OSI-027; first compound 0.02 µM) was 0.508, the relative viability (Vandetanib + OSI-027; first compound 0.06325 µM) was 0.57 and the relative viability (Vandetanib + OSI-027; first compound 0.2 µM) was 0.653. The relative viability (Vandetanib + OSI-027; first compound 0.6325 µM) was 0.634, the relative viability (Vandetanib + OSI-027; first compound 2 µM) was 0.534 and the relative viability ([1]; first compound 0.005 µM) was 0.628. It also gave a relative viability ([1]; first compound 0.01581 µM) of 0.726, a relative viability ([1]; first compound 0.1581 µM) of 0.803 and a relative viability ([1]; first compound 0.5 µM) of 0.686. The relative viability (CUDC-101 + Tozasertib; first compound 0.01 µM) was 0.211, the relative viability (CUDC-101 + Tozasertib; first compound 0.03162 µM) was 0.182 and the relative viability (CUDC-101 + Tozasertib; first compound 0.1 µM) was 0.173. For the same cell line, the relative viability (CUDC-101 + Tozasertib; first compound 0.3162 µM) was 0.173, the relative viability (CUDC-101 + Tozasertib; first compound 1 µM) was 0.131 and the relative viability (NVP-TAE684 + Tozasertib; first compound 0.2 µM) was 0.216. It also gave a relative viability (NVP-TAE684 + Tozasertib; first compound 0.6325 µM) of 0.16 and a relative viability (NVP-TAE684 + Tozasertib; first compound 2 µM) of 0.139.
